# From ChEMBL document CHEMBL3045835, “Comparative study of conventional and microwave-assisted synthesis of some Schiff bases and their potential as antimicrobial agents” (2012)
# Tests used:
# Format in all cases: functional
# [1] = tested on: Pseudomonas fluorescens; experiment: Antibacterial activity against Pseudomonas fluorescens MTCC 2421 at 500 ug/ml after 18 hr by cup-plate method; conditions: MTCC 2421, 18 h, read-out: DIZ
# [2] = tested on: Bacillus pumilus; experiment: Antibacterial activity against Bacillus pumilus MTCC 1456 at 1500 ug/ml after 18 hr by cup-plate method; conditions: MTCC 1456, 18 h, read-out: DIZ
# [3] = tested on: Aspergillus niger; experiment: Antifungal activity against Aspergillus niger MTCC 2546 at 100 ug/ml after 18 hr by cup-plate method; conditions: MTCC 2546, 18 h, read-out: DIZ
# [4] = tested on: Bacillus pumilus; experiment: Antibacterial activity against Bacillus pumilus MTCC 1456 at 1000 ug/ml after 18 hr by cup-plate method; conditions: MTCC 1456, 18 h, read-out: DIZ
# [5] = tested on: Staphylococcus aureus; experiment: Antibacterial activity against Staphylococcus aureus MTCC 1430 at 200 ug/ml after 18 hr by cup-plate method; conditions: MTCC 1430, 18 h, read-out: DIZ
# [6] = tested on: Penicillium chrysogenum; experiment: Antifungal activity against Penicillium chrysogenum MTCC 161 at 1000 ug/ml after 18 hr by cup-plate method; conditions: MTCC 161, 18 h, read-out: DIZ
# [7] = tested on: Bacillus subtilis; experiment: Antibacterial activity against Bacillus subtilis MTCC 441 at 1000 ug/ml after 18 hr by cup plate method; conditions: MTCC 441, 18 h, read-out: DIZ
# [8] = tested on: Bacillus pumilus; experiment: Antibacterial activity against Bacillus pumilus MTCC 1456 at 200 ug/ml after 18 hr by cup-plate method; conditions: MTCC 1456, 18 h, read-out: DIZ
# [9] = tested on: Bacillus pumilus; experiment: Antibacterial activity against Bacillus pumilus MTCC 1456 at 100 ug/ml after 18 hr by cup-plate method; conditions: MTCC 1456, 18 h, read-out: DIZ
# [10] = tested on: Micrococcus luteus; experiment: Antibacterial activity against Micrococcus luteus MTCC 1538 after 24 hr by broth dilution method; conditions: MTCC 1538, 24 h
# [11] = tested on: Pseudomonas aeruginosa; experiment: Antibacterial activity against Pseudomonas aeruginosa MTCC 424 at 500 ug/ml after 18 hr by cup-plate method; conditions: MTCC 424, 18 h, read-out: DIZ
# [12] = tested on: Bacillus subtilis; experiment: Antibacterial activity against Bacillus subtilis MTCC 441 at 500 ug/ml after 18 hr by cup plate method; conditions: MTCC 441, 18 h, read-out: DIZ
# [13] = tested on: Penicillium chrysogenum; experiment: Antifungal activity against Penicillium chrysogenum MTCC 161 after 24 hr by broth dilution method; conditions: MTCC 161, 24 h
# [14] = tested on: Pseudomonas fluorescens; experiment: Antibacterial activity against Pseudomonas fluorescens MTCC 2421 at 1000 ug/ml after 18 hr by cup-plate method; conditions: MTCC 2421, 18 h, read-out: DIZ
# [15] = tested on: Micrococcus luteus; experiment: Antibacterial activity against Micrococcus luteus MTCC 1538 at 1000 ug/ml after 18 hr by cup-plate method; conditions: MTCC 1538, 18 h, read-out: DIZ
# [16] = tested on: Micrococcus luteus; experiment: Antibacterial activity against Micrococcus luteus MTCC 1538 at 1500 ug/ml after 18 hr by cup-plate method; conditions: MTCC 1538, 18 h, read-out: DIZ
# [17] = tested on: Pseudomonas fluorescens; experiment: Antibacterial activity against Pseudomonas fluorescens MTCC 2421 at 100 ug/ml after 18 hr by cup-plate method; conditions: MTCC 2421, 18 h, read-out: DIZ
# [18] = tested on: Pseudomonas fluorescens; experiment: Antibacterial activity against Pseudomonas fluorescens MTCC 2421 at 200 ug/ml after 18 hr by cup-plate method; conditions: MTCC 2421, 18 h, read-out: DIZ
# [19] = tested on: Staphylococcus aureus; experiment: Antibacterial activity against Staphylococcus aureus MTCC 1430 at 1000 ug/ml after 18 hr by cup-plate method; conditions: MTCC 1430, 18 h, read-out: DIZ
# [20] = tested on: Penicillium chrysogenum; experiment: Antifungal activity against Penicillium chrysogenum MTCC 161 at 1500 ug/ml after 18 hr by cup-plate method; conditions: MTCC 161, 18 h, read-out: DIZ
# [21] = tested on: Staphylococcus aureus; experiment: Antibacterial activity against Staphylococcus aureus MTCC 1430 after 24 hr by broth dilution method; conditions: MTCC 1430, 24 h
# [22] = tested on: Penicillium chrysogenum; experiment: Antifungal activity against Penicillium chrysogenum MTCC 161 at 100 ug/ml after 18 hr by cup-plate method; conditions: MTCC 161, 18 h, read-out: DIZ
# [23] = tested on: Escherichia coli; experiment: Antibacterial activity against Escherichia coli MTCC 1573 at 500 ug/ml after 18 hr by cup-plate method; conditions: MTCC 1573, 18 h, read-out: DIZ
# [24] = tested on: Micrococcus luteus; experiment: Antibacterial activity against Micrococcus luteus MTCC 1538 at 500 ug/ml after 18 hr by cup-plate method; conditions: MTCC 1538, 18 h, read-out: DIZ
# [25] = tested on: Escherichia coli; experiment: Antibacterial activity against Escherichia coli MTCC 1573 at 1500 ug/ml after 18 hr by cup-plate method; conditions: MTCC 1573, 18 h, read-out: DIZ
# [26] = tested on: Aspergillus niger; experiment: Antifungal activity against Aspergillus niger MTCC 2546 at 200 ug/ml after 18 hr by cup-plate method; conditions: MTCC 2546, 18 h, read-out: DIZ
# [27] = tested on: Bacillus subtilis; experiment: Antibacterial activity against Bacillus subtilis MTCC 441 at 100 ug/ml after 18 hr by cup plate method; conditions: MTCC 441, 18 h, read-out: DIZ
smiles,measurement,setting,value
Cc1cc(/N=C/c2cccc3ccccc23)no1,zone of inhibition at 500 µg/mL,[1],15 mm
same,zone of inhibition at 1500 µg/mL,[2],18 mm
same,zone of inhibition at 100 µg/mL,[3],13 mm
same,zone of inhibition at 1000 µg/mL,[4],17 mm
same,zone of inhibition at 200 µg/mL,[5],14 mm
same,zone of inhibition at 1000 µg/mL,[6],19 mm
same,zone of inhibition at 1000 µg/mL,[7],19 mm
same,zone of inhibition at 200 µg/mL,[8],15 mm
same,zone of inhibition at 100 µg/mL,[9],13 mm
same,MIC,[10],200 µg/mL
same,zone of inhibition at 500 µg/mL,[11],17 mm
same,zone of inhibition at 500 µg/mL,[12],17 mm
same,MIC,[13],200 µg/mL
same,zone of inhibition at 1000 µg/mL,[14],18 mm
same,zone of inhibition at 1000 µg/mL,[15],22 mm
same,zone of inhibition at 1500 µg/mL,[16],24 mm
same,zone of inhibition at 100 µg/mL,[17],11 mm
same,zone of inhibition at 200 µg/mL,[18],13 mm
same,zone of inhibition at 1000 µg/mL,[19],16 mm
same,zone of inhibition at 1500 µg/mL,[20],20 mm
same,MIC,[21],400 µg/mL
same,zone of inhibition at 100 µg/mL,[22],15 mm
same,zone of inhibition at 500 µg/mL,[23],14 mm
same,zone of inhibition at 500 µg/mL,[24],20 mm
same,zone of inhibition at 1500 µg/mL,[25],17 mm
same,zone of inhibition at 200 µg/mL,[26],18 mm
same,zone of inhibition at 100 µg/mL,[27],13 mm
